Laboratory results as given in US20050118310A1, “Formulations of compounds derived from natural sources and their use with irradiation for food preservation” (priority 2001, published 2005).
“And” between values parts separate entries of the source, which are not always exact repeats. Identical values can stand only once. Marks after values point to notes of the source that are not given here.

Key:
E. coli [1] = test: Irradiation sensitivity of E. coli in chicken breast; format: cell-based, Escherichia coli (ATCC 25922); conditions: trans-cinnamaldehyde 0.050%, thymol 0.038%, tetrasodium pyrophosphate 0.003%, carvacrol 0.029%; for D10(kGy) / Increase in Sensitivity: chicken breast; for D10(kGy): 4° C.; for Increase in Sensitivity: vs control
[2] = tested on: Six pathogenic and spoilage bacteria, commonly found in meat and meat products; test: MIC in artificial culture media (1 log reduction); format: cell-based
Description: The concentration ot each active compound added to the meat samples was based on results obtained in a previous experiment. These concentrations represent the minimum inhibitory concentrations (MIC) of the active compounds required to be present in artificial culture media in order to reduce by 1 log the number of bacteria in culture. Six pathogenic and spoilage bacteria, commonly found in meat and meat products, were tested. […] The concentration used for carnosine (1.0%) was selected from the literature (Sebranek, 1999). The concentrations of BHA (0.01%), BHT (0.01%), EDTA (100 ppm), and tetrasodium pyrophosphate (0.1%) corresponded to the concentrations recommended by the Canadian Food Inspection Agency (CFIA).
This value was detennined by testing six pathogenic and spoilage bacteria, commonly found in meat and meat products.

S. typhi [3] = test: Irradiation sensitivity of S. typhi in chicken breast; format: cell-based, Salmonella typhi (ATCC 19430); conditions: for D10(kGy) / Increase in Sensitivity: chicken breast; for D10(kGy): 4° C.; for D10(kGy) / irradiation dose necessary to completely eliminate S. typhi from the chicken breast / Increase in Sensitivity: trans-cinnamaldehyde 0.030%, tetrasodium pyrophosphate 0.003%, carvacrol 0.038%, thymol […]; for factor by which the effect was reduced in the chicken breast: concentration of 1/30 of the MIC value in ground beef, compared with ground beef at MIC; for Increase in Sensitivity: vs control
S. typhi [4] = test: MIC (D10 %) of active compounds in ground beef, S. typhi; format: cell-based, Salmonella typhi (ATCC 19430); conditions: non-irradiated ground beef, 10^5 CFU/g, stored at 4° C. for 24 hours; % w/w or v/w
Description: (§1) Escherichia coli (ATCC 25922) and Salmonella typhi (ATCC 19430) were obtained from the American Type Culture Collection (Rockville, Md., USA) and maintained at −80° C. in Tryptic Soy Broth (TSB; Difco Laboratory, Detroit, Mich.) containing glycerol (10%; v/v). Before each experiment, stock cultures were subcultured through two consecutive 24 h growth cycles in TSB at 35° C. to obtain working cultures containing approximately 10^9 UCF/ml for E. coli and S. typhi.
(§2) Samples were homogenised for 2 min in sterile peptone water (0.1%) using a Lab-blender 400 stomacher (Laboratory Equipment, London, UK). From this mixture, serial dilutions were prepared and appropriate ones were pour-plated in tryptic soy agar (TSA) (Difco, Laboratories, Detroit, Mich., USA) and incubated at 35° C., 24 hours for the numeration of E. coli and S. typhi.
(§3) D10 deteriiination: The kinetics of bacteria destruction by irradiation with or without the active compounds and under different packaging conditions was evaluated by linear regression. Bacterial counts (log CFU/ml) were plotted against irradiation doses or compound concentrations and the D10 values were calculated using SigmaPlot program. Statistical analysis was done using SPSS program. The Duncan test was used with a probability of 0.05.
(§4) The MIC values for the active compounds were determined on the basis of their antibacterial effectiveness in meat. Concentrations retained were those to reduce by 1 log CFU the population of E. coli or S. typhi in ground beef. Ground beef samples weighing 200 g were contaminated with working cultures of E. coli or S. typhi to obtain a final concentration of 10^5 CFU/g. The ground beef samples containing micro-organisms was mixed during 3 minutes at medium speed in a 4L-conmmercial blender (Waring Products, New Hartford, Col., USA) and different concentrations of the active compounds were incorporated, followed by another 3 minutes period mixing. Sterile petri plates (60×15 mm) were filled with ground beef samples containing micro-organisms and different concentrations of active compounds in portion of 25 g each and stored at 4° C. for 24 hours.
(§5) In addition to the above compounds, minimal concentrations of different types of commercial Herbalox® and Duralox® required to reduce by 1 log the bacterial population of E. coli in ground beef were evaluated. […] However, an estimation of the minimal concentration was calculated using the slope of the curve.

E. coli [5] = test: Shelf life study, E. coli in ground beef irradiated at 0.30 kGy; format: cell-based, Escherichia coli; conditions: stored at 4° C., trans-cinnamaldehyde […], thymol 1.15%, carvacrol […]
Description: Irradiation treatments of ground beef samples for D10 and shelf life determination were performed using UC-15B irradiator (MDS-Nordion International Inc., Kanata, ON, Canada) equipped with a ^60 Co source at a dose rate of 14.42 kGy/h). Irradiation doses used for D10 determination were ranged from 0.25 to 0.55 kGy for E. coli, from 0.50 to 2.0 kGy for S. typhi, and from 0.5 to 2.5 kGy for the mixture of indigenous microorganisms of ground beef. The shelf life study was performed on samples irradiated at 0.30, 0.85, and 1.75 kGy for E. coli, S. typhi, and the mixture of indigenous microorganisms of ground beef, respectively. For each active compound concentration tested, a group of non-irradiated samples sened as a control. For D10 determination, samples were analysed immediately after irradiation. For shelf life studies, samples were stored at 4° C. and analysed periodically.
Microbial analysis was performed by homogenising the samples for 2 mn in sterile peptone water (0.1%) using a Lab-blender 400 stomacher (Laboratory Equipment, London, UK). From this mixture, serial dilutions were prepared and appropriate ones were pour-plated in tryptic soy agar (TSA) (Difco, Laboratories, Detroit, Mich., USA) and incubated at 35° C., 24 hours for the numeration of E. coli and S. typhi. For the ground beef broth, the incubation was performed on Plate Count Agar (PCA; Difco) at 35° C. for 48 h for the numeration mesophilic bacteria, and at 7° C. for 10 days for the numeration of psychrotrophic bacteria. Enterobacteriaceae were numerated on Violet Red Bile Glucose Agar (VRBGA; Difco) 35° C. for 48 hours.
A shelf life study was undertaken to evaluate the radiation sensitivity during refrigerated storage conditions. Ground beef samples contaminated with E. coli, S. typhi, or a mixture of indigenous micro-organisms were irradiated in presence or absence of selected active compounds. […]

E. coli [6] = test: MIC (D10 %) of active compounds in ground beef, E. coli; format: cell-based, Escherichia coli (ATCC 25922); conditions: non-irradiated ground beef, 10^5 CFU/g, stored at 4° C. for 24 hours; % w/w or v/w
Description: as §1, §2, §3, §4, §5

SMILES | D10(kGy) (E. coli [1]) | irradiation dose necessary to completely eliminate E. coli from the chicken breast (E. coli [1]) | Increase in Sensitivity (E. coli [1]) [%] | Mean values of MIC (concentration required in artificial culture media to reduce by 1 log the number of bacteria) [2] | D10(kGy) (S. typhi [3]) | factor by which the effect was reduced in the chicken breast (S. typhi [3]) | irradiation dose necessary to completely eliminate S. typhi from the chicken breast (S. typhi [3]) [kGy] | Increase in Sensitivity (S. typhi [3]) [%] | D10 (%): minimal concentration of active compound required to reduce S. typhi population by 1 log in ground beef (S. typhi [4]) | days of storage after which complete inhibition was observed (E. coli [5]) [days] | D10 (%): minimal concentration of active compound required to reduce E. coli population by 1 log in ground beef (E. coli [6])
Cc1ccc(C(C)C)cc1O [Carvacrol, carvacrol] | 0.145 ± 0.003^c kGy | 0.72 kGy | 0 | 0.125% | 0.532 ± 0.071^b kGy | 4 | 2.3 | 17.3 | 1.15 ± 0.02^a % | 50 | 0.88 ± 0.12^a %
O=C/C=C/c1ccccc1 [Trans-cinnamaldehyde, trans-cinnamaldehyde] | 0.098 ± 0.006^a kGy | 0.75 kGy | 32.4 | 0.25% and 0.025% | 0.341 ± 0.018^a kGy | 1.5 | 1.4 | 47.0 | 0.89 ± 0.03^a % | 15 | 1.57 ± 0.10^b %
Cc1ccc(C(C)C)c(O)c1 [Thymol, thymol] | 0.131 ± 0.007^b kGy | around 0.75 kGy | 9.7 | 0.1% | 0.570 ± 0.065^b kGy | 5 | 2.8 | 11.4 | 1.60 ± 0.00^ab % | 15 | 1.14 ± 0.05^a %
